The NIST ThermoML archive (doi:10.1021/je901050v)

How the values were obtained:
[1] = 101.33 kPa, Liquid; for mass density: Vibrating tube method; for viscosity: Concentric cylinders viscometry
[2] = refractive index (Na D-line) (dimensionless); conditions: 101.33 kPa, Liquid, Standard Abbe refractometry

CCCCCCCCn1cc[n+](CCC#N)c1.[Br-] [3-(2-cyanoethyl)-1-octyl-1H-imidazolium bromide]
Conditions | mass density, [1] [kg/m3] | refractive index, [2] | viscosity, [1] [mPa·s]
293.15 K | 1180.1 | – | –
298.15 K | 1176.6 | 1.51473 | –
303.15 K | 1173.2 | 1.51362 | –
308.15 K | 1169.8 | 1.51266 | 19620
313.15 K | 1166.4 | 1.51149 | 13044
318.15 K | 1163 | 1.51024 | 8302.7
323.15 K | 1159.6 | 1.50891 | 5136.1
328.15 K | 1156.2 | 1.50757 | 3291.8
333.15 K | 1152.9 | 1.50604 | 2160.4
338.15 K | 1149.5 | – | 1459.8
343.15 K | 1146.1 | – | 1019.6
348.15 K | 1142.8 | – | 727.9
353.15 K | 1139.6 | – | 530.5

CCCCCCn1cc[n+](CCC#N)c1.[Br-] [3-(2-cyanoethyl)-1-hexyl-1H-imidazolium bromide]
Conditions | mass density, [1] [kg/m3] | refractive index, [2] | viscosity, [1] [mPa·s]
293.15 K | 1232.4 | – | –
298.15 K | 1229 | 1.52872 | –
303.15 K | 1225.6 | 1.52823 | 15893
308.15 K | 1222.3 | 1.52719 | 9029.8
313.15 K | 1219 | 1.526 | 5610.4
318.15 K | 1215.7 | 1.52479 | 3602.1
323.15 K | 1212.4 | 1.52354 | 2379.9
328.15 K | 1209.1 | 1.52229 | 1618.2
333.15 K | 1205.8 | 1.52117 | 1128.4
338.15 K | 1202.5 | – | 805.1
343.15 K | 1199.2 | – | 639.6
348.15 K | 1195.9 | – | 465.7
353.15 K | 1192.7 | – | 359.3

CCCCCCCCCCn1cc[n+](CCC#N)c1.[Br-] [3-(2-cyanoethyl)-1-decyl-1H-imidazolium bromide]
Conditions | mass density, [1] [kg/m3] | refractive index, [2] | viscosity, [1] [mPa·s]
308.15 K | 1134.2 | 1.50786 | –
313.15 K | 1129.5 | 1.50696 | 16702
318.15 K | 1125.6 | 1.50606 | 10314
323.15 K | 1121.2 | 1.50502 | 6813.4
328.15 K | 1118.2 | 1.50388 | 4573.6
333.15 K | 1115 | 1.50279 | 3016.4
338.15 K | 1111.7 | – | 2051.2
343.15 K | 1108.5 | – | 1426.6
348.15 K | 1105.2 | – | 1014.6
353.15 K | 1101.9 | – | 737

CCCCn1cc[n+](CCC#N)c1.[Br-] [1-butyl-3-(2-cyanoethyl)-1H-imidazolium bromide]
Conditions | mass density, [1] [kg/m3] | refractive index, [2] | viscosity, [1] [mPa·s]
293.15 K | 1308.5 | – | –
298.15 K | 1304.7 | 1.5454 | 19103
303.15 K | 1301.1 | 1.54454 | 11304
308.15 K | 1297.7 | 1.54346 | 7058.4
313.15 K | 1294.3 | 1.54229 | 4502.1
318.15 K | 1291 | 1.54111 | 2953
323.15 K | 1287.6 | 1.53992 | 1989.7
328.15 K | 1284.4 | 1.53869 | 1377.5
333.15 K | 1281.2 | 1.53748 | 975.6
338.15 K | 1277.9 | – | 705.8
343.15 K | 1274.7 | – | 520.5
348.15 K | 1271.4 | – | 390.7
353.15 K | 1268.2 | – | 298.1
